Experimental data reported in publication PMC9045377, “CpxA Phosphatase Inhibitor Activates CpxRA and Is a Potential Treatment for Uropathogenic Escherichia coli in a Murine Model of Infection” (Microbiology Spectrum, 2022).
pIC50: −log10 of the molar value.

Experiments:
[1] = test system: HepG2 cells; experiment: Cytotoxicity by LDH release in HepG2 cells; type: cell-based; conditions: 0 to 160 μM
Description: E. coli strain CFT073 and its derivative CFT073ΔcpxA::cat were described previously and maintained on Luria broth (LB) plates at 37°C ([30]). The E. coli PcpxP′-lacZ reporter strain, PAD282, was the gift of Thomas Silhavy (Princeton University, Princeton, NJ, USA) and was maintained on TB plates at 37°C ([31]). HepG2 hepatocellular carcinoma cells were the gift of Andy Yu (Indiana University, Indianapolis, IN) and were grown in RPMI […] medium (Gibco) containing 10% fetal calf serum (HyClone) and 1 mM sodium pyruvate (Sigma) at 37°C with 5% CO2 as described ([31]).
The cytotoxicity of compound 6 for HepG2 cells was determined by LDH release after incubation with the compound in concentrations ranging from 0 to 160 μM for 5 h and 24 h exactly as described ([31]). The IC50 was determined from quadruplicate experiments by the GraphPad Prism 6 software using a nonlinear fit model.

[2] = test system: UPEC strain CFT073; type: in vivo, Escherichia coli (in female CBA/J mice); conditions: compound 6 trial
Description: Four groups of eight female CBA/J mice were transurethrally inoculated with a target dose of ∼10^8 CFU of either CFT073 or CFT073ΔcpxA::cat. One group was treated with ciprofloxacin (2.5 mg/kg/dose dissolved in sterile distilled water) s.c. 12, 24, 36, 48, and 60 h after inoculation with CFT073 as described ([31]). The untreated CFT073 and CFT073ΔcpxA::cat inoculated groups were given the vehicle control s.c. at 12, 24, 36, 48, and 60 h after inoculation. The compound 6 treated group were given the drug (100 mg/kg) s.c. at 12, 36, and 60 h after inoculation with CFT073 and received the vehicle control s.c. at 24 and 48 h. The animals were sacrificed 4 h after the last treatment (64 h postinoculation) and CFU per milliliter or CFU per gram of tissue was determined in the urine, bladder, and kidneys.
Animal experiments were conducted according to the guidelines of the University of Michigan Institutional Animal Care and Use Committee. For the animal infection experiments, bacterial strains were cultured at 37°C in LB medium overnight with shaking ([30]). Female CBA/J mice (Jackson Laboratories, Bar Harbor, ME) were inoculated transurethrally with a target dose of ∼10^8 CFU of CFT073 or CFT073ΔcpxA::cat. Mice were subsequently treated 12 h later either with the vehicle, ciprofloxacin hydrochloride (PanReac AppliChem ITW Reagents; Jade Scientific), compound 1, compound 6, or compound 26 as described in Results and euthanized 4 h after the last treatment. Bacterial loads of each strain were calculated from the urine, bladder, and kidneys of mice as previously described; the limits of detection for these assays were 100 CFU/mL or 100 CFU/g of urine and tissue, respectively ([33]). Values of 50 CFU/mL or 50 CFU/g were assigned to specimens whose yields were below the limit of detection.
Due to the extreme skewness of the data, natural log transformation was used before the data were analyzed statistically. Descriptive statistics were calculated for all of the log-transformed variables. Statistical comparisons were done using analysis of variance (ANOVA) with follow-up pairwise tests adjusted for multiple comparisons using the Tukey procedure.

[3] = test system: E. coli CFT073 proteome; experiment: Label-free quantitative proteomics of CFT073 grown in human urine (LC-MS/MS); type: cell-based, Escherichia coli; conditions: 150 μM, 5 h
Description: E. coli CFT073 and CFT073ΔcpxA::cat were cultured overnight at 37°C in 5 mL of LB medium overnight with shaking. Bacteria were pelleted, washed twice in PBS, and suspended in 1 mL of PBS. Cells were then suspended in 10 mL of filter-sterilized pooled human urine obtained from 4 healthy female volunteers as described ([41]) to an OD600 of ∼0.02. Urine containing CFT073 was treated either with 150 mM compound 26 dissolved in 10 μL of DMSO to reach a final concentration of 150 μM or 10 μL of DMSO; urine containing CFT073ΔcpxA::cat was treated with 10 μL of DMSO. After 5 h of incubation, cultures were split into 5-mL aliquots, centrifuged, and the pellets were washed once with PBS and frozen at −80°C. One pellet from 4 independent experiments was used to detect CpxR-P using a Phos-Tag gel and Western blotting with an anti-MBP-CpxR antibody obtained from Thomas Silhavy as previously described ([31]). Densitometry values were determined using Photoshop 2021 (version 22.4.3), and the ratio of CpxR-P to CpxR was analyzed by one-way ANOVA adjusted for multiple comparisons using the Tukey procedure.
For label-free quantitative proteomics, cell pellets from 5 independent experiments were subjected for protein extraction followed by liquid chromatography-tandem mass spectrometry (LC-MS/MS). Sample preparation for LC-MS/MS analysis and proteomics pipeline was followed as described previously ([42]). In brief, bacteria were pelleted from urine cultures, and the pellets were solubilized in 1 mL of 8 M urea lysis buffer. Equal amounts of proteins (100 μg) were subjected for overnight trypsin/LysC (V5071; Promega) digestion. One microgram of bovine serum albumin (BSA) was added to each sample as an internal control prior to in-solution digestion. LC-MS/MS analysis was performed on a Dionex UltiMate 3000 (Thermo Fisher Scientific) system connected to a Q-Exactive HF-X mass spectrometer (Thermo Fisher Scientific). Detail settings of the LC-MS/MS analysis was described previously ([42]).
Peptide spectrum matching of MS/MS spectra was searched against the UniProt E. coli CFT073-UPEC database (TaxID 199310) using the Sequest algorithm within Proteome Discoverer version 2.4 software (Thermo Fisher Scientific). The Sequest database search was performed with the following parameters: trypsin enzyme cleavage specificity, 2 possible missed cleavages, 10 ppm mass tolerance for precursor ions, 0.02 Da mass tolerance for fragment ions. Search parameters permitted dynamic modification of methionine oxidation (+15.9949 Da) and static modification of carbamidomethylation (+57.0215 Da) on cysteine. Peptide assignments from the database search were filtered to a 1% false discovery rate. The relative label-free quantitative and comparative among the samples were performed using the Minora algorithm and Proteome Discoverer 2.4 software. Differential abundance of proteins between conditions was defined as a 1.5-fold change in relative abundance with an adjusted P value of <0.05.

[4] = test system: UPEC strain CFT073; type: in vivo, Escherichia coli (in female CBA/J mice); conditions: compound 26 trial
[5] = threshold 1.5-fold, adjusted P <0.05

| Structure (SMILES) | IC50, LDH release ([1]; 5 h incubation) | pIC50 ([1]; Homo sapiens, 24 h incubation) | CFU of CFT073 recovered in urine vs CFT073-inoculated vehicle control ([2]; 8 mice/group, compound 6 100 mg/kg s.c. at 12, 36, 60 h, ciprofloxacin 2.5 mg/kg/dose s.c. at 12, 24, 36, 48, 60 h, sacrifice 64 h) | CFU of CFT073 recovered in bladder vs CFT073-inoculated vehicle control ([2]; same regimens) | CFU of CFT073 recovered in kidneys vs CFT073-inoculated vehicle control ([2]; same regimens) | additional higher-abundance proteins vs CFT073 control only [3] | additional higher-abundance proteins vs CFT073ΔcpxA::cat control only [3] | additional lower-abundance proteins vs CFT073 control only [3] | additional lower-abundance proteins vs CFT073ΔcpxA::cat control only [3] | number of higher abundance proteins vs both controls [3, 5] | number of lower abundance proteins vs both controls [3, 5] | recoverable CFU in bladder vs vehicle-treated mice inoculated with CFT073ΔcpxA::cat [4] | recoverable CFU in kidneys vs vehicle-treated mice inoculated with CFT073ΔcpxA::cat [4] | recoverable CFU in urine vs vehicle-treated mice inoculated with CFT073ΔcpxA::cat [4] | recoverable CFU in urine vs CFT073-inoculated vehicle-treated controls ([4]; 8 mice/group, compound 26 100 mg/kg s.c. at 12, 36, 60 h, ciprofloxacin 2.5 mg/kg/dose s.c. at 12, 24, 36, 48, 60 h, sacrifice 64 h) | recoverable CFU in bladder vs CFT073-inoculated vehicle-treated controls ([4]; same regimens) | recoverable CFU in kidneys vs CFT073-inoculated vehicle-treated controls ([4]; same regimens) | recoverable CFU in urine, bladder and kidneys vs ciprofloxacin-treated group ([4]; all P > 0.9) |
| --- | --- | --- | --- | --- | --- | --- | --- | --- | --- | --- | --- | --- | --- | --- | --- | --- | --- | --- |
| NC1CCCc2c1[nH]c1ccc(F)cc21 (stereo not drawn) [compound 6] | could not be calculated | < 4.48 | no effect | no effect | no effect | – | – | – | – | – | – | – | – | – | – | – | – | – |
| N[C@@H]1CCCc2c1[nH]c1cc(F)c(F)cc21 [compound 26] | – | – | – | – | – | 27 | 28 | 12 | 10 | 42 | 53 | significantly lower | significantly lower | trended toward having a lower CFU | significantly lowered | trended toward lowering | trended toward lowering | no significant differences |
